Test results from ChEMBL document CHEMBL5365453, “Synthesis and biological evaluation of xanthine derivatives with phenacyl group as tryptophan hydroxylase 1 (TPH1) inhibitors for obesity and fatty liver disease” (Bioorg Med Chem Lett, 2023).
Calls of active or inactive are those of the source. The rule behind the calls is not given here.

Columns and labels:
[1] = target: T1, Tryptophan 5-hydroxylase 1 (Homo sapiens) (UniProt P17752); test: Inhibition of TPH1 ( unknown origin ) at 1 uM relative to control
T1 sequence (whole entry): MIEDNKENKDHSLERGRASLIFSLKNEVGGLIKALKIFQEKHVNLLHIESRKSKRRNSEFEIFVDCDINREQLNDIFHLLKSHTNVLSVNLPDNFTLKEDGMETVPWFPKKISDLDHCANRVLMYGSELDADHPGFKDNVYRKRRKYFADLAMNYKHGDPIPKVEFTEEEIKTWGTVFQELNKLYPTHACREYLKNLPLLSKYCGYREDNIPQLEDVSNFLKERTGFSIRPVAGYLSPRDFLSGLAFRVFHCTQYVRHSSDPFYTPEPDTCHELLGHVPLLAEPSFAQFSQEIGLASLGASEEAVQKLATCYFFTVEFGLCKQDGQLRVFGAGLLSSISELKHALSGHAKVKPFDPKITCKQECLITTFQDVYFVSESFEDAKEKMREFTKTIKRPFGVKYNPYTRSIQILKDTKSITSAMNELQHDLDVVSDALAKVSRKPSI

[2] = Stability in human liver microsomes assessed as compound remaining measured after 30 mins; assay type: ADME, Microsome; conditions: read-out: Stability
[3] = target: T2, Tryptophan 5-hydroxylase 1 (Homo sapiens, UniProt P17752); test: Inhibition of TPH1 ( unknown origin )
T2 sequence (P17752 whole entry): T1 sequence (whole entry)

[4] = Stability in mouse liver microsomes assessed as compound remaining measured after 30 mins; assay type: ADME, Microsome; conditions: read-out: Stability
[5] = target: T3, Tryptophan 5-hydroxylase 1 (Mus musculus) (UniProt P17532); test: Inhibition of TPH1 in mouse 3T3-L1 cells assessed as suppression of insulin-induced adipocyte differentiation by measuring reduction in lipid droplet accumulation at 1 to 2 uM measured on day 7 post-adipogenesis induction by oil red O staining based phase-contrast light microscopy; assay type: cell-based; conditions: dose 1-2 µM, time 7.0 day
T3 sequence (whole entry): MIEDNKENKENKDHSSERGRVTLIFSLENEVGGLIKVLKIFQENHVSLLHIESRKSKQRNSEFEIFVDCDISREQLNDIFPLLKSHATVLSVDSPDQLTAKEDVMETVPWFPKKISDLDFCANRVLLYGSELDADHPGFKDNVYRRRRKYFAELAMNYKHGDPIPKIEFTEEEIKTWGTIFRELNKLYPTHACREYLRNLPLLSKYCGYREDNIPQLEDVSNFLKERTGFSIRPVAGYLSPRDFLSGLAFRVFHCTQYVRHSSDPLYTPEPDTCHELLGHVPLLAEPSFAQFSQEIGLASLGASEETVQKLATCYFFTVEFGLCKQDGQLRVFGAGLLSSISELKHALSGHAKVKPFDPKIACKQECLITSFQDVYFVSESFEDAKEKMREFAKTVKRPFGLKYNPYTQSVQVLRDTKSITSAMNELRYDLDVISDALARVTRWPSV

[6] = target: T3, Tryptophan 5-hydroxylase 1 (Mus musculus); test: Inhibition of TPH1 in mouse 3T3-L1 cells assessed as suppression of insulin-induced adipocyte differentiation by measuring reduction in lipid droplet accumulation at 1 to 2 uM measured on day 7 post-adipogenesis induction by oil red O staining based spectrophotometry; assay type: cell-based; conditions: dose 1-2 µM, time 7.0 day

Row | SMILES | inhibition [1] | other results
1 | CCn1c(=O)[nH]c(=O)c2c1nc(Cc1cn3ccsc3n1)n2CC(=O)c1ccccc1OC | 0.3% | 
2 | CCn1c(=O)[nH]c(=O)c2c1nc(Cc1cn3ccsc3n1)n2CC(=O)Nc1ccc(OC)cc1 | 4.1% | 
3 | CCn1c(=O)[nH]c(=O)c2c1nc(Cc1cn3ccsc3n1)n2CC(=O)c1ccc(OC)cc1 | 91.4% | remaining at 0.5 h [2]: 69%; IC50 [3]: 0.182 µM; remaining at 0.5 h [4]: 30%
4 | CCn1c(=O)[nH]c(=O)c2c1nc(Cc1cn3ccsc3n1)n2CC(=O)c1ccc(CO)cc1 | 83% | remaining at 0.5 h [2]: 91.5%; IC50 [3]: 0.277 µM; remaining at 0.5 h [4]: 85.2%
5 | CCn1c(=O)[nH]c(=O)c2c1nc(Cc1cn3ccsc3n1)n2CC(=O)c1ccc(Cl)cc1 | 66% | 
6 | CCn1c(=O)[nH]c(=O)c2c1nc(Cc1cn3ccsc3n1)n2Cc1ccccc1 | 48.6% | IC50 [3]: 1.16 µM
7 | CCn1c(=O)[nH]c(=O)c2c1nc(Cc1ccccc1)n2Cc1ccccc1 | 0% | 
8 | CCn1c(=O)n(Cc2ccccc2)c(=O)c2c1nc(Cc1cn3ccsc3n1)n2Cc1ccccc1 | 6.2% | 
9 | CCn1c(=O)[nH]c(=O)c2c1nc(Cc1cn3ccsc3n1)n2CC(=O)c1ccc(C(F)(F)F)cc1 | 47.5% | 
10 | CCn1c(=O)[nH]c(=O)c2c1nc(Cc1cn3ccsc3n1)n2CC(=O)c1ccc(O)cc1 | 94.3% | remaining at 0.5 h [2]: 80.4%; IC50 [3]: 0.11 µM; remaining at 0.5 h [4]: 77.3%; inhibition [5]: Active; inhibition [6]: Active
11 | CCn1c(=O)[nH]c(=O)c2c1nc(Cc1cn3ccsc3n1)n2CC(=O)c1cccc(OC)c1 | 38.9% | 
12 | CCn1c(=O)[nH]c(=O)c2[nH]c(Cc3cn4ccsc4n3)nc21 | 10.2% | 
13 | CCn1c(=O)[nH]c(=O)c2c1nc(Cc1cn3ccsc3n1)n2CC(=O)c1ccccc1 | 39.4% | 
14 | CCn1c(=O)[nH]c(=O)c2c1nc(Cc1cn3ccsc3n1)n2CC(O)c1ccc(Cl)cc1 (centres undefined) | 0% | 
15 | CCn1c(=O)[nH]c(=O)c2c1nc(Cn1cnc3ccccc31)n2Cc1ccccc1 | 0% | 
16 | CCn1c(=O)[nH]c(=O)c2c1nc(Cn1ccnc1)n2Cc1ccccc1 | 0% | 
17 | CCn1c(=O)[nH]c(=O)c2c1nc(Cc1cn3ccsc3n1)n2CC(=O)c1ccc(N=[N+]=[N-])cc1 | 87.9% | 
18 | CCn1c(=O)[nH]c(=O)c2c1nc(Cc1cn3ccsc3n1)n2CC(=O)c1ccc(-c2ccccc2)cc1 | 32.6% | 
19 | CCn1c(=O)[nH]c(=O)c2c1nc(Cc1cn3ccsc3n1)n2C/C(=N/O)c1ccc(OC)cc1 | 25.5% | 
20 | CCn1c(=O)[nH]c(=O)c2c1nc(Cc1cn3ccsc3n1)n2CC(=O)c1ccc(F)cc1 | 62.6% | 
21 | CCn1c(=O)[nH]c(=O)c2c1nc(Cc1cn3ccsc3n1)n2CC(=O)c1ccc(OC(C)=O)cc1 | 80.8% | 
22 | CCn1c(=O)[nH]c(=O)c2c1nc(Cc1cn3ccsc3n1)n2CC(=O)c1ccc(N)cc1 | 87.8% | remaining at 0.5 h [2]: 95.3%; IC50 [3]: 0.168 µM; remaining at 0.5 h [4]: 80.8%
23 | CCn1c(=O)[nH]c(=O)c2c1nc(Cc1cn3ccsc3n1)n2CC(=O)c1ccc(Br)cc1 | 47.2% | 
24 | CCn1c(=O)[nH]c(=O)c2c1nc(C)n2Cc1ccccc1 | 0% | 
